Our source for the GI50 and IC50 values is patent publication US12006314B2, “Anti-cancer nuclear hormone receptor-targeting compounds” (Nuvation Bio Inc., priority 2021, dated 2024).

The subject of assay [1] is LNCap cells. The experiment in a line: Cell viability assay LNCap. It counts as cell-based. To be noted: Homo sapiens, 144 h, 6 days, CellTiterGlo. As to the method:
(§1) Cell viability assay: LNCap, 22Rv1, MCF7, MDAMB361, T47D, and IEC6 cells were seeded at a density of 500-2000 cells/well in 96 well plates, and a ‘T0’ (timepoint 0) was included along with the assay plate. The plates were then incubated at 37° C., 5% CO2 in a cell culture incubator overnight. On the next day, the ‘T0’ plate was assayed using CellTiterGlo (Promega, Inc) according to the manufacturer's instructions. The appropriate compounds were diluted in DMSO and added to the assay plate (final DMSO concentration of 0.1-0.2%) on the next day. The assay plates were incubated for 6 days at 37° C., 5% CO2. After the incubation period, the plates were assayed using CellTiterGlo (Promega, Inc) according to the manufacturer's instructions and luminescence was read on the EnVision plate reader. Inhibition of the tested compounds was determined by the following formula: Inhibition rate (%)=(1−(RLU compound−RLU day0)/(RLU control−RLU day0))*100%. GraphPadPrism was used to analyze the data and determine GI50/IC50 values.

Assay [2] deals with T1, full-length androgen receptor (HEK293 cells stably expressing) (Homo sapiens, UniProt P10275).
T1 construct: HEK293 cells stably expressing the full-length androgen receptor were seeded; expressed in transfected cells
T1 sequence (P10275 1-920): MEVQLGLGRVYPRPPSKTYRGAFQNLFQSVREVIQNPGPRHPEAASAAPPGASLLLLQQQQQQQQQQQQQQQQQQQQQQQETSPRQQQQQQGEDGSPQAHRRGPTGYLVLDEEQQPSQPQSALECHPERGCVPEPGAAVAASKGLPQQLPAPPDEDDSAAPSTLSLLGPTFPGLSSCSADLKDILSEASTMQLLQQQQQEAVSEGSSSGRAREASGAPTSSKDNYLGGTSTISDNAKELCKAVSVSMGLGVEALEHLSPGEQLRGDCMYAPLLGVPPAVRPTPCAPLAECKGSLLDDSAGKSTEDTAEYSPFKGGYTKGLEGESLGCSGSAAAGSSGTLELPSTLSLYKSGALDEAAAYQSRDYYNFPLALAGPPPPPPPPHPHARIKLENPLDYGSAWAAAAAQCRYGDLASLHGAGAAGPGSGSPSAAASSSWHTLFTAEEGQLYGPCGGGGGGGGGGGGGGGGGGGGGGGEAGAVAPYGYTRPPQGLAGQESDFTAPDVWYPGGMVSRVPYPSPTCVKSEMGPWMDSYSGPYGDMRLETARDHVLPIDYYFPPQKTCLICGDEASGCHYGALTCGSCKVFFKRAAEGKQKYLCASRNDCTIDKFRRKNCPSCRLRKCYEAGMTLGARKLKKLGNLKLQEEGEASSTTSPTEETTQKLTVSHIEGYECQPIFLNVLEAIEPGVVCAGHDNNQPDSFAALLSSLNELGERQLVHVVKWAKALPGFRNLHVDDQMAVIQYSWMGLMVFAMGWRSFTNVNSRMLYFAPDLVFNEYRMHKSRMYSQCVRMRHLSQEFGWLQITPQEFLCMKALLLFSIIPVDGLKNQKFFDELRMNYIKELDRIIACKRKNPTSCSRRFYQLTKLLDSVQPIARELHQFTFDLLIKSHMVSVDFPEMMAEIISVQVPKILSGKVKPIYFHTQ
The experiment in a line: AR antagonism assay. Format: cell-based. To be noted: testosterone 1 nM, 20 h, Steady-glo. As to the method:
AR antagonism assay: To evaluate AR antagonist activity, test compound was added to the assay plate (top dose 10 μM, 3 fold serial dilution, 10 point dose response). HEK293 cells stably expressing the full-length androgen receptor were seeded at a density of 20000 cells/well in the assay plate. The assay plate was then incubated at room temperature for 10 minutes and at 37° C., 5% CO2 for 20 minutes. Testosterone is added to the assay plate at 1 nM final concentration and the assay plate incubated at 37° C., 5% CO2 for 20 h. After the incubation period, Steady-glo was added to the assay plate and mixed at room temperature for 20 minutes on an orbital shaker, before reading out on the EnVision plate reader.

In assay [3] the test system is 22Rv1 cells. As to the kind of experiment: Cell viability assay 22Rv1. It counts as cell-based. To be noted: Homo sapiens, 22Rv1, 144 h; 6 days, CellTiterGlo. As for the experimental part:
as §1

Assay [4] relates to IEC6 cells. The experiment in a line: Cell viability assay IEC6. To be noted: Rattus norvegicus, IEC-6, 144 h; 6 days, CellTiterGlo. It counts as cell-based. As for the experimental part: as §1
(In general: ATP-based viability assays read luminescence as a measure of living cells.)

Assay [5] addresses T2, AR (cytosol from LnCaP cells) (Homo sapiens, UniProt P10275, T878A).
T2 construct: endogenous in cells; host or cells: LNCaP cytosol
T2 sequence (P10275 1-920 T878A): T1 sequence (P10275 1-920) with T878A
As to the kind of experiment: AR binding assay. The note with it: 3H-R1881 1 nM, 4° C. 24 hrs. As to the method:
AR binding assay: To assess AR binding, test compound (top dose 10 μM, 4 fold serial dilution, 8 point dose response) and control (progesterone) were transferred to the assay plate. Cytosol from LnCaP cells was added to the plate, followed by addition of radiolabeled ^3H-R1881 at a final concentration of 1 nM. The plate was sealed, and the reaction was incubated at 300 rpm at 4° C. for 24 hrs. Radioligand absorption buffer (10 mM Tris-HCl, pH 7.4; 1.5 mM EDTA; 1 mM DTT; 0.25% charcoal; 0.0025% dextran) was then added to the plate, mixed, and incubated at 4° C. for 15 minutes. The plate was then centrifuged at 3000 rpm for 30 minutes at 4° C. The supernatant was transferred to the scint-tube and Tri-carb was used for scintillation counting.

The structures appear in SMILES notation. Numbering of substitutions follows the chain as printed.

Broadly, the GI50 is the concentration at which growth is held to half of that of the control. A higher GI50 goes with less potent growth inhibition. As a reminder, the IC50 is the concentration that gives 50% inhibition. High values mean weaker potency in that assay, low ones greater potency in that assay. Turning to `CCc1cc2ncc(CN3CCN(c4ccc(-c5nnc([C@H]6[C@H](C)OC(=O)N6c6ccc(C#N)c(Cl)c6)o5)cc4)CC3)cc2[nH]c1=O` [Compound 65, 2-Chloro-4-((4R,5S)-4-(5-(4-(4-((7-ethyl-6-oxo-5,6-dihydro-1,5-naphthyridin-3-yl)methyl)-piperazin-1-yl)phenyl)-1,3,4-oxadiazol-2-yl)-5-methyl-2-oxooxazolidin-3-yl)benzonitrile], the results for the GI50 in assay [1] and in assay [3] were 5 to 30 µM and above 30 µM, respectively. In addition, the results for the IC50 in assay [2], in assay [4] and in assay [5] were above 10 µM, above 30 µM and above 10 µM, respectively.

With `CCc1cc2ncc(CN3CCN(CC4CCN(c5ccc(C(=O)N[C@H]6CC[C@H](Oc7ccc(C#N)c(Cl)c7C)CC6)nn5)CC4)CC3)cc2[nH]c1=O` [Compound 66, N-((1r,4r)-4-(3-Chloro-4-cyano-2-methylphenoxy)cyclohexyl)-6-(4-((4-((7-ethyl-6-oxo-5,6-dihydro-1,5-naphthyridin-3-yl)methyl)piperazin-1-yl)methyl)piperidin-1-yl)pyridazine-3-carboxamide], the GI50 in assay [1] and in assay [3] was at most 0.5 µM throughout. Besides, the IC50 was above 10 µM in assay [2], 0.5 to 5 µM in assay [4] and below 0.1 µM in assay [5].

For `CCc1cc2ncc(CN3CCN(CC4CCN(c5ccc(C(=O)N[C@H]6CC[C@H](N(C)c7ccc(C#N)c(Cl)c7)CC6)nn5)CC4)CC3)cc2[nH]c1=O` [Compound 67, N-((1R,4R)-4-((3-Chloro-4-cyanophenyl)(methyl)amino)cyclohexyl)-6-(4-((4-((7-ethyl-6-oxo-5,6-dihydro-1,5-naphthyridin-3-yl)methyl)piperazin-1-yl)methyl)piperidin-1-yl)pyridazine-3-carboxamide], the 50% growth inhibitory concentration (GI50) in assay [1] and in assay [3] was at most 0.5 µM throughout. Besides, the IC50 was above 10 µM in assay [2], above 30 µM in assay [4] and below 0.1 µM in assay [5].

Turning to `CCc1cc2ncc(CN3CCN(Cc4ccc(-c5nnc([C@H](Nc6ccc(C#N)c(Cl)c6)[C@H](C)O)o5)cc4)CC3)cc2[nH]c1=O` [Compound 68, 2-Chloro-4-(((1R,2S)-1-(5-(4-((4-((7-ethyl-6-oxo-5,6-dihydro-1,5-naphthyridin-3-yl)methyl)piperazin-1-yl)methyl)phenyl)-1,3,4-oxadiazol-2-yl)-2-hydroxypropyl)amino)benzonitrile], the GI50 is 0.5 to 5 µM in assay [1] and 5 to 30 µM in assay [3]. Also, the IC50 is above 10 µM in assay [2], above 30 µM in assay [4] and above 10 µM in assay [5].

As for `CCc1cc2ncc(CN3CCN(Cc4ccc(-c5nnc([C@H](Nc6ccc(C#N)c(Cl)c6C)[C@H](C)O)o5)cc4)CC3)cc2[nH]c1=O` [Compound 69, 2-Chloro-4-(((1R,2S)-1-(5-(4-((4-((7-ethyl-6-oxo-5,6-dihydro-1,5-naphthyridin-3-yl)methyl)piperazin-1-yl)methyl)phenyl)-1,3,4-oxadiazol-2-yl)-2-hydroxypropyl)amino)-3-methylbenzonitrile], the GI50 in assay [1] was in the range of 0.5 to 5 µM; in assay [3], 5 to 30 µM. For the same molecule, the IC50 in assay [2] is above 10 µM; in assay [4], above 30 µM; in assay [5], above 10 µM.
